Data published in the NIST ThermoML archive (doi:10.1016/j.fluid.2008.02.005).
Numbers after ± are expanded uncertainties.

Assays:
[1] = 101.33 kPa, Liquid
[2] = xn = mol fraction of the nth substance listed; details: 101 kPa, Liquid

CCCCCCOCCOCCO [2-(2-hexyloxyethoxy)ethanol]
[1]
Details	mass density [kg/m3]
288.15 K	924.348 ± 0.29
298.15 K	915.522 ± 0.3
308.15 K	906.642 ± 0.31

CCCCCO [pentan-1-ol]
[1]
Details	mass density [kg/m3]
288.15 K	818.336 ± 0.45
298.15 K	811.001 ± 0.46
308.15 K	803.302 ± 0.47

CCCCCCOCCOCCO [2-(2-hexyloxyethoxy)ethanol] + CCCO
mass density [kg/m3], [2]
Details	288.15 K	298.15 K	308.15 K
x1 = 0.1085	837.518 ± 0.41	829.325 ± 0.43	820.919 ± 0.44
x1 = 0.1608	848.615 ± 0.4	840.381 ± 0.41	831.968 ± 0.42
x1 = 0.2102	857.751 ± 0.38	849.425 ± 0.4	841.022 ± 0.41
x1 = 0.2477	863.891 ± 0.38	855.521 ± 0.39	847.161 ± 0.4
x1 = 0.2972	871.227 ± 0.36	862.829 ± 0.38	854.397 ± 0.39
x1 = 0.3493	878.129 ± 0.35	869.65 ± 0.37	861.101 ± 0.38
x1 = 0.4048	884.6 ± 0.34	876.088 ± 0.36	867.464 ± 0.37
x1 = 0.46	890.404 ± 0.34	881.84 ± 0.35	873.153 ± 0.36
x1 = 0.5003	894.261 ± 0.33	885.64 ± 0.34	876.925 ± 0.35
x1 = 0.5584	899.282 ± 0.32	890.668 ± 0.34	881.873 ± 0.35
x1 = 0.6066	903.088 ± 0.32	894.428 ± 0.33	885.633 ± 0.34
x1 = 0.6604	906.948 ± 0.31	898.225 ± 0.32	889.461 ± 0.34
x1 = 0.6964	909.32 ± 0.31	900.561 ± 0.32	891.847 ± 0.33
x1 = 0.7532	912.745 ± 0.3	903.981 ± 0.32	895.267 ± 0.33
x1 = 0.8054	915.595 ± 0.3	906.826 ± 0.31	898.1 ± 0.32
x1 = 0.8563	918.152 ± 0.29	909.394 ± 0.31	900.587 ± 0.32
x1 = 0.9044	920.357 ± 0.29	911.598 ± 0.3	902.735 ± 0.32
x1 = 0.9593	922.69 ± 0.29	913.937 ± 0.3	905.015 ± 0.31

CCCCCCOCCOCCO [2-(2-hexyloxyethoxy)ethanol] + CO
mass density [kg/m3], [2]
Details	288.15 K	298.15 K	308.15 K
x1 = 0.1165	853.467 ± 0.39	844.018 ± 0.41	834.816 ± 0.42
x1 = 0.162	865.705 ± 0.37	856.244 ± 0.39	846.965 ± 0.4
x1 = 0.2113	875.875 ± 0.36	866.451 ± 0.37	857.177 ± 0.39
x1 = 0.266	884.716 ± 0.34	875.458 ± 0.36	866.337 ± 0.37
x1 = 0.3119	890.88 ± 0.34	881.656 ± 0.35	872.742 ± 0.36
x1 = 0.3606	896.388 ± 0.33	887.19 ± 0.34	878.481 ± 0.35
x1 = 0.4012	900.31 ± 0.32	891.16 ± 0.33	882.585 ± 0.35
x1 = 0.4577	904.872 ± 0.31	895.844 ± 0.33	887.363 ± 0.34
x1 = 0.5071	908.159 ± 0.31	899.262 ± 0.32	890.741 ± 0.33
x1 = 0.5578	911.041 ± 0.3	902.168 ± 0.32	893.568 ± 0.33
x1 = 0.6037	913.218 ± 0.3	904.353 ± 0.31	895.701 ± 0.33
x1 = 0.6644	915.682 ± 0.3	906.87 ± 0.31	898.078 ± 0.32
x1 = 0.7102	917.283 ± 0.29	908.456 ± 0.31	899.602 ± 0.32
x1 = 0.7533	918.633 ± 0.29	909.864 ± 0.31	901.011 ± 0.32
x1 = 0.7928	919.837 ± 0.29	911.054 ± 0.3	902.199 ± 0.32
x1 = 0.8517	921.511 ± 0.29	912.714 ± 0.3	903.777 ± 0.32
x1 = 0.9	922.714 ± 0.29	913.911 ± 0.3	905.244 ± 0.31
x1 = 0.9674	924.001 ± 0.28	915.182 ± 0.3	906.508 ± 0.31
